Structures are written as SMILES.

The target in the assay is wild-type human cardiac sodium channel, hNav1.5 (Homo sapiens, UniProt Q14524). Description: Late INa screening assay (automated whole cell patch clamp, PatchXpress). The format is cell-based. To be noted: compound at 1 μM; HEK293 cells expressing hNav1.5; late INa generated with 10 μM Tefluthrin (or 50 nM ATX II); read-out: LateINa_1 uM (percent block of late INa). A digest of the protocol: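 Late sodium current through wild-type human hNav1.5 stably expressed in HEK293 cells (no beta subunits) was recorded by automated whole-cell patch clamp on a PatchXpress 7000A at 24-27° C. Late INa was induced with 10 μM Tefluthrin or 50 nM ATX II. Cells were stepped from −120 mV to −20 mV for 250 ms at 0.1 Hz, and percent block was normalized to current in Na-free extracellular solution.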
Chain of wild-type human cardiac sodium channel, hNav1.5 (Q14524 whole entry): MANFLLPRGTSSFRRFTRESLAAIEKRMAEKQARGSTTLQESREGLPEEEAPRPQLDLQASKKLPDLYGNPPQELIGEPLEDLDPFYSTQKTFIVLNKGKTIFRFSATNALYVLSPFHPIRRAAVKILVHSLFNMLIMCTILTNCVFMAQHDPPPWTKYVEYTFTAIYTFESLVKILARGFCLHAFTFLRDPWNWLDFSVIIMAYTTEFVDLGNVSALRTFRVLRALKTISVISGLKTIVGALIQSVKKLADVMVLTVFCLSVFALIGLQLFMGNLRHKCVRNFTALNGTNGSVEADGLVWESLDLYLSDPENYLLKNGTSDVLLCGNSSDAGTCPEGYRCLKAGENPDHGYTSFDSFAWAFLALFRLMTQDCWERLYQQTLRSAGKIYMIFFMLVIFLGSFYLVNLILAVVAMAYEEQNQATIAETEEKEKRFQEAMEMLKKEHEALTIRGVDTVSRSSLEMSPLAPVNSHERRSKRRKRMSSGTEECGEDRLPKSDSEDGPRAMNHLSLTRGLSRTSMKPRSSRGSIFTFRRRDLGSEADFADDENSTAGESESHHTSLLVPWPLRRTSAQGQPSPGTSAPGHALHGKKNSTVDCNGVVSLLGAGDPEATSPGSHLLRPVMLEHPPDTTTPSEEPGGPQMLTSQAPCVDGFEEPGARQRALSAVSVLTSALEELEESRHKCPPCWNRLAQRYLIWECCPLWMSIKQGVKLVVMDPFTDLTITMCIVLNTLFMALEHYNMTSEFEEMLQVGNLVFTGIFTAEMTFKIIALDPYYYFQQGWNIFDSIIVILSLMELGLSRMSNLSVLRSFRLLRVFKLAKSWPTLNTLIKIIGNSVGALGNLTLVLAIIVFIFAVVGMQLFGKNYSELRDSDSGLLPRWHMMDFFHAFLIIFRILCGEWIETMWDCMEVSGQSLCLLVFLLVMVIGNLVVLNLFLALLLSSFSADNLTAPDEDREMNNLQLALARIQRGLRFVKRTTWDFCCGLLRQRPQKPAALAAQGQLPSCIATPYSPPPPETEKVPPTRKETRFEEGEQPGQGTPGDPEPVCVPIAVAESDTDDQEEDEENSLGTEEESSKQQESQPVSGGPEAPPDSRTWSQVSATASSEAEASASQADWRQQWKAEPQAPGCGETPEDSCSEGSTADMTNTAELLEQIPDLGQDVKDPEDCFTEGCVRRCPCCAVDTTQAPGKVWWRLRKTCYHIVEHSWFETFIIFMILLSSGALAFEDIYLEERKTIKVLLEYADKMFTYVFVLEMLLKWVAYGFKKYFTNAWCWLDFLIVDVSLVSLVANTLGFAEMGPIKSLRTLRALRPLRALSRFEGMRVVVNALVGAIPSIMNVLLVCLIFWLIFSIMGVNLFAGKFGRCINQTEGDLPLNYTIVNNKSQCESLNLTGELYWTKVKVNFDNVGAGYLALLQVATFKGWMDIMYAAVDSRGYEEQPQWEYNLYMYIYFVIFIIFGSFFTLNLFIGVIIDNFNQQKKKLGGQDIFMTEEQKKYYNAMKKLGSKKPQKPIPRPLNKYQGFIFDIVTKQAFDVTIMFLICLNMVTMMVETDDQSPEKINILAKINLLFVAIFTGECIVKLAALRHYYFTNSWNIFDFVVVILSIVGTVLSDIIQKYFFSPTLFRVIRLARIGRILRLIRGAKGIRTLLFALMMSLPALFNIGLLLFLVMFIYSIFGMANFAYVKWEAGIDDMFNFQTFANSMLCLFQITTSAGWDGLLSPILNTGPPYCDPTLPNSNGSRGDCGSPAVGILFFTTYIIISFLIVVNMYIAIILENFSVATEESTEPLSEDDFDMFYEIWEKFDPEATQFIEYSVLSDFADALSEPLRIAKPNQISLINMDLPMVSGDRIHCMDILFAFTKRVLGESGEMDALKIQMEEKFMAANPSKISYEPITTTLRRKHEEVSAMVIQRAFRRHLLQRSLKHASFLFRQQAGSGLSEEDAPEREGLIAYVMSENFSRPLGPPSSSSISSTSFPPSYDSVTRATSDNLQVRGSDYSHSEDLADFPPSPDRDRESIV
Turning to `FC(F)(F)Oc1ccc(-c2ccc3nnc(C(F)(F)OCc4ccnc5ccccc45)n3c2)cc1` [BHN-212, 4-[(difluoro{6-[4-(trifluoromethoxy)phenyl][1,2,4]triazolo[4,3-a]pyridin-3-yl}methoxy)methyl]quinoline], the inhibition at 1 µM worked out at 59.6%.
With `FC(F)(F)c1ncc2ccc(-c3nc4ccccc4s3)cn12` [BHN-213, 2-[3-(trifluoromethyl)imidazo[1,5-a]pyridin-6-yl]-1,3-benzothiazole] the figure was 24%.
The figure for `FC(F)(F)Oc1ccc(-c2ccc3nnc(C(F)(F)OCC4CC4)n3c2)cc1` [BHN-214, 3-[(cyclopropylmethoxy)(difluoro)methyl]-6-[4-(trifluoromethoxy)phenyl][1,2,4]triazolo[4,3-a]pyridine] is 80.8%; for `FC(F)(F)Oc1ccc(-c2ccc3nnc(C(F)(F)OCc4cn(-c5ccccc5)nn4)n3c2)cc1` [BHN-215, 3-{difluoro[(1-phenyl-1H-1,2,3-triazol-4-yl)methoxy]methyl}-6-[4-(trifluoromethoxy)phenyl][1,2,4]triazolo[4,3-a]pyridine] it is 36.4%; for `FC(F)(F)Oc1ccc(-c2ccc3nnc(C(F)(F)OCc4cccnn4)n3c2)cc1` [BHN-216, 3-[difluoro(pyridazin-3-ylmethoxy)methyl]-6-[4-(trifluoromethoxy)phenyl][1,2,4]triazolo[4,3-a]pyridine] it is 26.1%.
The figure for `CC(OC(F)(F)c1nnc2ccc(-c3ccc(OC(F)(F)F)cc3)cn12)c1ccc(F)cc1` (stereo not shown) [BHN-217, 3-{difluoro[1-(4-fluorophenyl)ethoxy]methyl}-6-[4-(trifluoromethoxy)phenyl][1,2,4]triazolo[4,3-a]pyridine] is 16.8%; for `Clc1ccc(Oc2ccc(-c3ccc4nnnn4c3)cc2)cc1` [BHN-218, 6-[4-(4-chlorophenoxy)phenyl]tetrazolo[1,5-a]pyridine] it is 36%.
For the molecule `FC(F)(F)COc1ccc(-c2ccc3nnnn3c2)cn1` [BHN-219, 6-[6-(2,2,2-trifluoroethoxy)pyridin-3-yl]tetrazolo[1,5-a]pyridine], the inhibition at 1 µM was determined as 36.9%.
The figure for `COC(C)(C)c1ccc(-c2ccc3nnc(C(F)(F)F)n3c2)cc1` [BHN-220, 6-[4-(2-methoxypropan-2-yl)phenyl]-3-(trifluoromethyl)[1,2,4]triazolo[4,3-a]pyridine] is 58.5%; for `FC(F)(F)COc1ccc(-c2ccc3nnc(C(F)(F)F)n3n2)cn1` [BHN-221, 6-[6-(2,2,2-trifluoroethoxy)pyridin-3-yl]-3-(trifluoromethyl)[1,2,4]triazolo[4,3-b]pyridazine] it is 55%.
The figure for `CCOc1cc(OC(F)(F)F)ccc1-c1ccc2nnc(C(F)(F)F)n2c1` [BHN-222, 6-[2-ethoxy-4-(trifluoromethoxy)phenyl]-3-(trifluoromethyl)[1,2,4]triazolo[4,3-a]pyridine] is 65.3%; for `CC(C)Oc1cc(OC(F)(F)F)ccc1-c1ccc2nnc(C(F)(F)F)n2c1` [BHN-223, 6-[2-(propan-2-yloxy)-4-(trifluoromethoxy)phenyl]-3-(trifluoromethyl)[1,2,4]triazolo[4,3-a]pyridine] it is 54.5%.
With `Cn1nc(COC(F)(F)c2nnc3ccc(-c4ccc(OC(F)(F)F)cc4)cn23)cc1-c1ccccc1` [BHN-224, 3-{difluoro[(1-methyl-5-phenyl-1H-pyrazol-3-yl)methoxy]methyl}-6-[4-(trifluoromethoxy)phenyl][1,2,4]triazolo[4,3-a]pyridine] the figure was 24.2%; with `FC(F)(F)Oc1ccc(-c2ccc3nnc(C(F)(F)OCc4ccc5c(c4)OC(F)(F)O5)n3c2)cc1` [BHN-225, 3-{[(2,2-difluoro-1,3-benzodioxol-5-yl)methoxy](difluoro)methyl}-6-[4-(trifluoromethoxy)phenyl][1,2,4]triazolo[4,3-a]pyridine], 63%; with `FC(F)(F)Oc1ccc(-c2ccc3nnc(COCc4ccc(C(F)(F)F)cc4)n3c2)cc1` [BHN-226, 6-[4-(trifluoromethoxy)phenyl]-3-({[4-(trifluoromethyl)benzyl]oxy}methyl)[1,2,4]triazolo[4,3-a]pyridine], 59.3%.
On to `Fc1ccc(COCc2nnc3ccc(-c4ccc(OC(F)(F)F)cc4)cn23)cc1` [BHN-227, 3-{[(4-fluorobenzyl)oxy]methyl}-6-[4-(trifluoromethoxy)phenyl][1,2,4]triazolo[4,3-a]pyridine], for which the inhibition at 1 µM worked out at 79.8%.
The figure for `Cc1nc(COC(F)(F)c2nnc3ccc(-c4ccc(OC(F)(F)F)cc4)cn23)c(C)o1` [BHN-228, 3-{[(2,5-dimethyl-1,3-oxazol-4-yl)methoxy](difluoro)methyl}-6-[4-(trifluoromethoxy)phenyl][1,2,4]triazolo[4,3-a]pyridine] is 73%; for `Cc1oc(-c2ccccc2)nc1COC(F)(F)c1nnc2ccc(-c3ccc(OC(F)(F)F)cc3)cn12` [BHN-229, 3-{difluoro[(5-methyl-2-phenyl-1,3-oxazol-4-yl)methoxy]methyl}-6-[4-(trifluoromethoxy)phenyl][1,2,4]triazolo[4,3-a]pyridine] it is 72.2%.
The figure for `CC(OC(F)(F)c1nnc2ccc(-c3ccc(OC(F)(F)F)cc3)cn12)c1ccccn1` (stereo not shown) [BHN-230, 3-{difluoro[1-(pyridin-2-yl)ethoxy]methyl}-6-[4-(trifluoromethoxy)phenyl][1,2,4]triazolo[4,3-a]pyridine] is 42.3%.
With `CC(OC(F)(F)c1nnc2ccc(-c3ccc(OC(F)(F)F)cc3)cn12)c1ccc(Cl)cc1` (stereo not shown) [BHN-231, 3-{[1-(4-chlorophenyl)ethoxy](difluoro)methyl}-6-[4-(trifluoromethoxy)phenyl][1,2,4]triazolo[4,3-a]pyridine] the figure was 62.9%; with `COCC(F)(F)c1nnc2ccc(-c3ccc(OC(F)(F)F)c(F)c3)cn12` [BHN-232, 3-(1,1-difluoro-2-methoxyethyl)-6-[3-fluoro-4-(trifluoromethoxy)phenyl][1,2,4]triazolo[4,3-a]pyridine], 45.3%; with `COCC(F)(F)c1nnc2ccc(-c3cc(F)c(Oc4ccccc4)c(F)c3)cn12` [BHN-233, 3-(1,1-difluoro-2-methoxyethyl)-6-(3,5-difluoro-4-phenoxyphenyl)[1,2,4]triazolo[4,3-a]pyridine], 31.4%.
As to `COCC(F)(F)c1nnc2ccc(C#Cc3ccc(C(F)(F)F)cc3)cn12` [BHN-234, 3-(1,1-difluoro-2-methoxyethyl)-6-{[4-(trifluoromethyl)phenyl]ethynyl}[1,2,4]triazolo[4,3-a]pyridine], the inhibition at 1 µM worked out at 57.8%.
Regarding `FC(F)(F)Oc1ccc(-c2ccc3nnc(C(F)(F)COCc4cc(-c5ccc(Cl)cc5)no4)n3c2)cc1` [BHN-235, 3-(2-{[3-(4-chlorophenyl)-1,2-oxazol-5-yl]methoxy}-1,1-difluoroethyl)-6-[4-(trifluoromethoxy)phenyl][1,2,4]triazolo[4,3-a]pyridine], the inhibition at 1 µM worked out at 41.5%.
The figure for `FC(F)(F)c1nnc2ccc(-c3ccc(Oc4ccc(Cl)cc4)cc3)nn12` [BHN-236, 6-[4-(4-chlorophenoxy)phenyl]-3-(trifluoromethyl)[1,2,4]triazolo[4,3-b]pyridazine] is 40%; for `FC(F)c1nnc2ccc(-c3ccc(OCC(F)(F)F)nc3)nn12` [BHN-237, 3-(difluoromethyl)-6-[6-(2,2,2-trifluoroethoxy)pyridin-3-yl][1,2,4]triazolo[4,3-b]pyridazine] it is 44.7%.
As for `Fc1ccccc1COCc1nnc2ccc(-c3ccc(OC(F)(F)F)cc3)cn12` [BHN-238, 3-{[(2-fluorobenzyl)oxy]methyl}-6-[4-(trifluoromethoxy)phenyl][1,2,4]triazolo[4,3-a]pyridine], the inhibition at 1 µM came out at 80.6%.
With `FC(F)(F)Oc1ccc(-c2ccc3nnc(COCc4ccccc4C(F)(F)F)n3c2)cc1` [BHN-239, 6-[4-(trifluoromethoxy)phenyl]-3-({[2-(trifluoromethyl)benzyl]oxy}methyl)[1,2,4]triazolo[4,3-a]pyridine] the figure was 65.1%.
The figure for `Fc1ccc(COCc2nnc3ccc(-c4ccc(OC(F)(F)F)cc4)cn23)c(F)c1` [BHN-240, 3-{[(2,4-difluorobenzyl)oxy]methyl}-6-[4-(trifluoromethoxy)phenyl][1,2,4]triazolo[4,3-a]pyridine] is 83.4%.
With `FC(F)(F)Oc1ccc(-c2ccc3nnc(COCc4ccc(Cl)cc4)n3c2)cc1` [BHN-241, 3-{[(4-chlorobenzyl)oxy]methyl}-6-[4-(trifluoromethoxy)phenyl][1,2,4]triazolo[4,3-a]pyridine] the figure was 82.2%.
In the case of `FC(F)(F)Oc1ccc(COCc2nnc3ccc(-c4ccc(OC(F)(F)F)cc4)cn23)cc1` [BHN-242, 3-({[4-(trifluoromethoxy)benzyl]oxy}methyl)-6-[4-(trifluoromethoxy)phenyl][1,2,4]triazolo[4,3-a]pyridine], the inhibition at 1 µM came out at 72.2%.
The figure for `O=C(NCC(F)(F)c1nnc2ccc(-c3ccc(OC(F)(F)F)cc3)cn12)c1ccccc1` [BHN-243, N-(2,2-difluoro-2-{6-[4-(trifluoromethoxy)phenyl][1,2,4]triazolo[4,3-a]pyridin-3-yl}ethyl)benzamide] is 21%; for `FC(F)(F)Oc1ccc(-c2ccc3nnc(COCc4ccccn4)n3c2)cc1` [BHN-244, 3-[(pyridin-2-ylmethoxy)methyl]-6-[4-(trifluoromethoxy)phenyl][1,2,4]triazolo[4,3-a]pyridine] it is 17.5%.
Regarding `FC(F)(F)Oc1ccc(-c2ccc3nnc(C(F)(F)OCc4ncccn4)n3c2)cc1` [BHN-245, 3-[difluoro(pyrimidin-2-ylmethoxy)methyl]-6-[4-(trifluoromethoxy)phenyl][1,2,4]triazolo[4,3-a]pyridine], the inhibition at 1 µM stood at 38.8%.
